Source: PMC4351868 (Cancer chemotherapy and pharmacology, 2012)
Like-named read-outs stand apart in the source and are kept apart here.

How the values were obtained:
recurrent glioblastoma [1] = settings: glioblastoma patients; erlotinib in combination with temsirolimus; cited from earlier work
[2] = Serum pharmacokinetics of AEE788 and its metabolite AQM674
[3] = human, in vivo
[4] = assay type: in vivo, human; settings: for Serum concentration / Tumor concentration / concentration at 12 h: approximately 12 hours after 8th AEE788 (250 mg) dose; for concentration at 12 h: serum, Serum concentration
recurrent glioblastoma [5] = experiment: Efficacy: tumor response; assay type: in vivo, human; settings: for Median PFS: dose expansion phase
recurrent glioblastoma [6] = experiment: FLT-PET and DCE-/DSC-/DWI-MRI pharmacodynamic imaging; assay type: in vivo, human
[7] = Safety assessment: adverse events; assay type: in vivo
[8] = temsirolimus combined with sorafenib; 9 of 19 patients; cited from earlier work

SMILES: C#Cc1cccc(Nc2ncnc3cc(OCCOC)c(OCCOC)cc23)c1 [erlotinib]
- 6-month PFS (recurrent glioblastoma [1]): 12.5%
- PR (recurrent glioblastoma [1]): none

SMILES: C[C@@H](Nc1ncnc2[nH]c(-c3ccc(CN4CCNCC4)cc3)cc12)c1ccccc1 [AQM674]
- fold range in exposure over an 11-fold range in doses (50–550 mg) ([2]; Group A): 20 fold
- effect of EIACD on overall exposure / concentrations ([2]; Group B (EIACD) vs Group A): reduced
- accumulation after daily (q 24 h) administration versus a single dose ([2]; human, in vivo): 2-8 times
- PK steady state reached ([2]; once-daily dosing): ≤ 15 days
- exposure on day 15 relative to day 1 [3]: ~3 fold
- time of maximum serum concentration after administration, on average [3]: 4.6 h
- Serum concentration ([4]; Patient 1): 20.6 ng/mL
- Tumor concentration ([4]; Patient 1): 196.7 ng/mL
- Serum concentration ([4]; Patient 2): 22.8 ng/mL
- Tumor concentration ([4]; Patient 2): 411.2 ng/mL
- Serum concentration ([4]; Patient 3): 31.3 ng/mL
- Tumor concentration ([4]; Patient 3): 299.5 ng/mL
- Serum concentration ([4]; Patient 4): 22.8 ng/mL
- Tumor concentration ([4]; Patient 4): 93.9 ng/mL

SMILES: CCN1CCN(Cc2ccc(-c3cc4c(N[C@H](C)c5ccccc5)ncnc4[nH]3)cc2)CC1 [AEE788]
- overall best response: SD for > 3 cycles, patients (recurrent glioblastoma [5]; 6 of 36 patients): 17%
- Treatment discontinuation due to progressive disease (recurrent glioblastoma [5]; Group A, of 26 patients): 18 (69.2) n (%)
- Treatment discontinuation due to progressive disease (recurrent glioblastoma [5]; Group B, of 14 patients): 11 (78.6) n (%)
- complete or partial response (recurrent glioblastoma [5]; all patients): No CR or PR
- Median PFS (recurrent glioblastoma [5]; Group A): 2.7 (90% CI: 1.9, 2.8) months
- Median PFS (recurrent glioblastoma [5]; Group B): 1.6 (90% CI: 0.2, 2.6) months
- disease progression causing treatment discontinuation, patients (recurrent glioblastoma [5]; dose-escalation EIACD group, all dose levels (11 patients)): 78.6%
- disease progression causing treatment discontinuation, patients (recurrent glioblastoma [5]; dose-escalation non-EIACD group, all dose levels (18 patients)): 69.2%
- disease progression causing treatment discontinuation, patients (recurrent glioblastoma [5]; dose-expansion Arm 1, all dose levels (5 patients)): 71.4%
- disease progression causing treatment discontinuation, patients (recurrent glioblastoma [5]; dose-expansion Arm 2, all dose levels (10 patients)): 58.8%
- change in FLT-PET parameters (recurrent glioblastoma [6]; FLT-PET in 6 patients (250, 400, 600 mg)): one patient experienced a significant decrease in PET parameters
- pharmacodynamic effects based on FLT-PET and/or MRI analyses (recurrent glioblastoma [6]; any dose level): no significant pharmacodynamic effects
- Tmax ([2]; human, serum, oral): 5 h
- half-life ([2]; human, serum, oral): > 24 h
- AUC(0-t) ([2]; human, serum, oral, 50 mg/day): 82 ng·h/mL
- Cmax ([2]; human, serum, oral, 50 mg/day): 7.7 ng/mL
- Tmax ([2]; human, serum, oral, 50 mg/day): 3 h
- AUC(0-t) ([2]; human, serum, oral, 100 mg/day): 168 ng·h/mL
- Cmax ([2]; human, serum, oral, 100 mg/day): 12.7 ng/mL
- Tmax ([2]; human, serum, oral, 100 mg/day): 4.3 h
- AUC(0-t) ([2]; human, serum, oral, 200 mg/day): 189 ng·h/mL
- Cmax ([2]; human, serum, oral, 200 mg/day): 8.2 ng/mL
- Tmax ([2]; human, serum, oral, 200 mg/day): 9 h
- AUC(0-t) ([2]; human, serum, oral, 250 mg/day): 1440 ng·h/mL
- Cmax ([2]; human, serum, oral, 250 mg/day): 74.5 ng/mL
- Tmax ([2]; human, serum, oral, 250 mg/day): 5.9 h
- AUC(0-t) ([2]; human, serum, oral, 300 mg/day): 628 ng·h/mL
- Cmax ([2]; human, serum, oral, 300 mg/day): 55.2 ng/mL
- Tmax ([2]; human, serum, oral, 300 mg/day): 4.9 h
- AUC(0-t) ([2]; human, serum, oral, 400 mg/day): 1150 ng·h/mL
- Cmax ([2]; human, serum, oral, 400 mg/day): 77.1 ng/mL
- Tmax ([2]; human, serum, oral, 400 mg/day): 6.7 h
- AUC(0-t) ([2]; human, serum, oral, 450 mg/day): 3000 ng·h/mL
- Cmax ([2]; human, serum, oral, 450 mg/day): 148 ng/mL
- Tmax ([2]; human, serum, oral, 450 mg/day): 11 h
- AUC(0-t) ([2]; human, serum, oral, 550 mg/day): 4300 ng·h/mL
- Cmax ([2]; human, serum, oral, 550 mg/day): 234 ng/mL
- Tmax ([2]; human, serum, oral, 550 mg/day): 12.5 h
- AUC(0-t) ([2]; human, serum, oral, 600 mg/day): 730 ng·h/mL
- Cmax ([2]; human, serum, oral, 600 mg/day): 71.8 ng/mL
- Tmax ([2]; human, serum, oral, 600 mg/day): 3.7 h
- AUC(0-t) ([2]; human, serum, oral, 800 mg/day): 1460 ng·h/mL
- Cmax ([2]; human, serum, oral, 800 mg/day): 95.2 ng/mL
- Tmax ([2]; human, serum, oral, 800 mg/day): 3 h
- PK steady state reached [3]: ≤ 15 days
- accumulation after daily (q 24 h) administration versus a single dose [3]: 2-8 times
- effect of EIACD on overall exposure / concentrations [3]: reduced
- exposure of Group B patients at 600 mg relative to Group A patients at 550 mg [3]: half
- fold range in exposure over an 11-fold range in doses (50–550 mg) [3]: 52 fold
- mean coefficient of variation in AUC0–24 [3]: 67%
- range of coefficient of variation in AUC0–24 [3]: 47-102%
- exposure on day 15 relative to day 1 ([3]; 15 day): approximately 4.5 fold
- deaths within 28 days of last dose of AEE788 ([7]; Group A): 4 deaths
- Treatment discontinuation due to death ([7]; Group A, of 26 patients): 2 (7.7) n (%)
- Treatment discontinuation due to death ([7]; Group B, of 14 patients): 0 (0) n (%)
- deaths during AEE788 therapy ([7]; all disease progression): Three
- hepatotoxicity (at least grade 2 AST or ALT elevations), patients ([7]; human, in vivo): 27%
- patients who discontinued because of SAEs ([7]; human, in vivo): 17%
- patients who discontinued treatment because of AEs ([7]; human, in vivo): 28%
- patients with grade 3/4 AST or ALT elevations ([7]; human, in vivo): 22%
- patients reporting at least one AE ([7]; in vivo): All patients
- relationship between higher AEE788 dose levels and AST or ALT abnormalities ([7]; in vivo): No relationship
- Kp ([4]; human, glioblastoma tumor / plasma, oral, 250 mg): 14 to 59
- concentration at 12 h ([4]; human, oral, 250 mg, Patient 1): 57.3 ng/mL
- concentration at 12 h ([4]; human, oral, 250 mg, Patient 2): 41.9 ng/mL
- concentration at 12 h ([4]; human, oral, 250 mg, Patient 3): 141 ng/mL
- concentration at 12 h ([4]; human, oral, 250 mg, Patient 4): 110 ng/mL

SMILES: CO[C@H]1C[C@@H]2CC[C@@H](C)[C@@](O)(O2)C(=O)C(=O)N2CCCC[C@H]2C(=O)O[C@H]([C@H](C)C[C@@H]2CC[C@@H](OC(=O)C(C)(CO)CO)[C@H](OC)C2)CC(=O)[C@H](C)/C=C(\C)[C@@H](O)[C@@H](OC)C(=O)[C@H](C)C[C@H](C)/C=C/C=C/C=C/1C [temsirolimus]
- grade 3 thrombocytopenia, patients [8]: 47%
